Assay results reported in patent US6867320B2, “Substituted phenylalkanoic acid derivatives and use thereof” (Asahi Kasei Pharma Corporation, priority 2002, dated 2005).

Tested on: PGE2 production from IL-1β-stimulated MG-63 cells
Test: Suppressing action on PGE2 production from IL-1β-stimulated MG-63 cells
Assay type: cell-based
Settings: Homo sapiens, IL-1β 1 ng/ml, 18 hours, read-out: PGE2 production suppression ratio
Excerpt: 1. Suppressing Action on PGE2 Production from IL-1β-Stimulated MG-63 Cells (1) Method for Measurement
An action of suppressing PGE2 production caused by interleukin (IL) 1β as an inflammatory stimulant was studied by the following method. Cells of MG-63, which is a human osteosarcoma cell line (purchased from Dainippon Pharmaceutical), were suspended in EMEM medium (GIBCO) containing 10% fetal bovine serum (BioFluid), and then inoculated to each well of 96-well culture plate at a density of 2×10^4 cells/well and cultured overnight. The medium was changed to EMEM medium containing 0.5% fetal bovine serum, and then a test compound was added with each well. Human interleukin-1β (ENDOGEN) was further added as an inflammatory stimulant at a final concentration of 1 ng/ml. The cells were further cultured for 18 hours. The culture supernatant was collected, and the PGE2 concentration in the culture supernatant was measured by using EIA kit (CAYMAN). By using a well which was not added with the stimulant as a negative control and a well which was added only with the stimulant as a positive control, suppression ratios on PGE2 production were calculated from produced amounts of PGE2 in the well added with the test compound using the following equation. PGE2 production suppression ratio=[1−(C−B)/(A−B)]×100 • A: PGE2 production amount of positive control • B: PGE2 production amount of negative control • C: PGE2 production amount in well added with test compound

| SMILES | inhibition at 0.4 µM [%] |
| --- | --- |
| Cn1ccc2cc(-c3cc(CCC(=O)O)cc(N)c3OCC3CCCC3)ccc21 [Compound 269, 3-[3-amino-4-cyclopentylmethyloxy-5-(1-methyl-1H-indol-5-yl)phenyl]propionic acid] | ≥ 50 |
| O=C(O)CCc1ccc(OCC2CCCCC2)c(-c2ccc3cc[nH]c3c2)c1 [Compound 128, 3-[4-cyclohexylmethyloxy-3-(1H-indol-6-yl)phenyl]propionic acid] | ≥ 50 |
| Cc1cccc(COc2ccc(CCC(=O)O)cc2-c2ccc3[nH]ccc3c2)c1 [Compound 136, 3-[3-(1H-indol-5-yl)-4-(3-methylphenylmethyloxy)phenyl]propionic acid] | ≥ 50 |
| O=C(O)CCc1ccc(OCc2ccco2)c(-c2ccc3ccccc3c2)c1 [Compound 058, 3-{4-[(furan-2-yl)methyloxy]-3-(naphthalen-2-yl)phenyl}propionic acid] | ≥ 50 |
| O=C(O)CCc1ccc(OCC2CCCC2)c(-c2ccc3[nH]c(=S)sc3c2)c1 [Compound 309, 3-[4-cyclopentylmethyloxy-3-(2-thioxo-2,3-dihydrobenzothiazol-6-yl)phenyl]propionic acid] | ≥ 50 |
| Cc1[nH]c2ccc(-c3cc(CCC(=O)O)ccc3OCC3CCCCC3)cc2c1C [Compound 273, 3-[4-cyclohexylmethyloxy-3-(2,3-dimethyl-1H-indol-5-yl)phenyl]propionic acid] | ≥ 50 |
| CNc1cc(CCC(=O)O)cc(-c2ccc3c(cnn3C)c2)c1OC1Cc2ccccc2C1 [Compound 587, 3-[4-(indan-2-yloxy)-3-(N-methylamino)-5-(1-methyl-1H-indazol-5-yl)phenyl]propionic acid] | ≥ 50 |
| Cc1cc2cc(-c3cc(CCC(=O)O)ccc3OCC3CCCC3)ccc2[nH]1 [Compound 584, 3-[4-cyclopentylmethyloxy-3-(2-methyl-1H-indol-5-yl)phenyl]propionic acid] | ≥ 50 |
| CCCCOc1ccc(CCC(=O)O)cc1-c1ccc2ccccc2c1 [Compound 037, 3-[4-butyloxy-3-(naphthalen-2-yl)phenyl]propionic acid] | ≥ 50 |
| COc1nc2ccc(-c3cc(CCC(=O)O)ccc3OCC3CCCC3)cc2s1 [Compound 306, 3-[4-cyclopentylmethyloxy-3-(2-methoxybenzothiazol-6-yl)phenyl]propionic acid] | ≥ 50 |
| NS(=O)(=O)c1ccc2cc(-c3cc(CCC(=O)O)ccc3OCC3CCCC3)ccc2c1 [Compound 024, 3-[4-cyclopentylmethyloxy-3-(6-sulfamoylnaphthalen-2-yl)phenyl]propionic acid] | ≥ 50 |
| O=C(O)CCc1ccc(OCc2ccco2)c(-c2ccc3[nH]ccc3c2)c1 [Compound 194, 3-{4-[(furan-2-yl)methyloxy]-3-(1H-indol-5-yl)phenyl}propionic acid] | ≥ 50 |
| Cc1nc2ccc(-c3cc(CCC(=O)O)ccc3OCC3CCCC3)cc2s1 [Compound 308, 3-[4-cyclopentylmethyloxy-3-(2-methylbenzothiazol-6-yl)phenyl]propionic acid] | ≥ 50 |
| O=C(O)CCc1cc(Cl)c(OCC2CCCC2)c(-c2ccc3[nH]ccc3c2)c1 [Compound 263, 3-[3-chloro-4-cyclopentylmethyloxy-5-(1H-indol-5-yl)phenyl]propionic acid] | ≥ 50 |
| O=C(O)CCc1ccc(OC2CCCC2)c(-c2cccc3[nH]ccc23)c1 [Compound 118, 3-[4-cyclopentyloxy-3-(1H-indol-4-yl)phenyl]propionic acid] | ≥ 50 |
| COC(=O)CCc1cc(-c2ccc3ccccc3c2)c(OC2CCCC2)c([N+](=O)[O-])c1 [Compound 331, methyl 3-[4-cyclopentyloxy-3-(naphthalen-2-yl)-5-nitrophenyl]propionate] | ≥ 50 |
| O=C(O)CCc1cc(Cl)c(OCC2CCCC2)c(-c2ccc3ccccc3c2)c1 [Compound 092, 3-[3-chloro-4-cyclopentylmethyloxy-5-(naphthalen-2-yl)phenyl]propionic acid] | ≥ 50 |
| O=C(O)CCc1ccc(OCC2CCCCC2)c(-c2ccc3cc(OCCO)ccc3c2)c1 [Compound 071, 3-{4-cyclohexylmethyloxy-3-[6-(2-hydroxyethyloxy)naphthalen-2-yl]phenyl}propionic acid] | ≥ 50 |
| O=C(O)CCc1ccc(OCCC2CCCCC2)c(-c2ccc3ccccc3c2)c1 [Compound 049, 3-[4-(2-cyclohexylethyloxy)-3-(naphthalen-2-yl)phenyl]propionic acid] | ≥ 50 |
| CCCCOc1ccc(CCC(=O)O)cc1-c1ccc2[nH]ccc2c1 [Compound 130, 3-[4-butyloxy-3-(1H-indol-5-yl)phenyl]propionic acid] | ≥ 50 |
| O=C(O)CCc1ccc(OCc2ccccc2C(F)(F)F)c(-c2ccc3[nH]ccc3c2)c1 [Compound 170, 3-{3-(1H-indol-5-yl)-4-[2-(trifluoromethyl)phenylmethyloxy]-phenyl}propionic acid] | ≥ 50 |
| Cn1c(=N)sc2cc(-c3cc(CCC(=O)O)ccc3OCC3CCCC3)ccc21 [Compound 303, 3-[4-cyclopentylmethyloxy-3-(2-imino-3-methyl-2,3-dihydrobenzothiazol-6-yl)phenyl]propionic acid] | ≥ 50 |
| O=C(O)CCc1ccc(OCC2CCCC2)c(-c2ccc3ccc(O)cc3c2)c1 [Compound 008, 3-[4-cyclopentylmethyloxy-3-(7-hydroxynaphthalen-2-yl)-phenyl]propionic acid] | ≥ 50 |
| O=C(O)CCc1ccc(OCc2cc(Cl)cc(Cl)c2)c(-c2ccc3[nH]ccc3c2)c1 [Compound 188, 3-[4-(3,5-dichlorophenylmethyloxy)-3-(1H-indol-5-yl)phenyl]propionic acid] | ≥ 50 |
| Cc1cc(C)cc(COc2ccc(CCC(=O)O)cc2-c2ccc3[nH]ccc3c2)c1 [Compound 175, 3-[4-(3,5-dimethylphenylmethyloxy)-3-(1H-indol-5-yl)phenyl]propionic acid] | ≥ 50 |
| CS(=O)(=O)c1ccc2cc(-c3cc(CCC(=O)O)ccc3OCC3CCCC3)ccc2c1 [Compound 022, 3-[4-cyclopentylmethyloxy-3-(6-methanesulfonylnaphthalen-2-yl)phenyl]propionic acid] | ≥ 50 |
